Assays:
Settings in all cases: Compound concentration 1000.0 nM
[1] = molecular target: Activin receptor type-1-like (Homo sapiens) (UniProt P37023)
[2] = molecular target: Atypical kinase COQ8A, mitochondrial (Homo sapiens) (UniProt Q8NI60)
[3] = molecular target: RAC-alpha serine/threonine-protein kinase (Homo sapiens) (UniProt P31749)
[4] = molecular target: Calcium/calmodulin-dependent protein kinase type II subunit gamma (Homo sapiens) (UniProt Q13555)
[5] = molecular target: Cyclin-dependent kinase 11A (Homo sapiens) (UniProt Q9UQ88)
[6] = molecular target: Cyclin-dependent kinase 5 (Homo sapiens) (UniProt Q00535)
[7] = molecular target: Macrophage colony-stimulating factor 1 receptor (Homo sapiens) (UniProt P07333)
[8] = molecular target: Casein kinase I isoform gamma-3 (Homo sapiens) (UniProt Q9Y6M4)
[9] = molecular target: Serine/threonine-protein kinase DCLK1 (Homo sapiens) (UniProt O15075)
[10] = molecular target: Discoidin domain-containing receptor 2 (Homo sapiens) (UniProt Q16832)
[11] = molecular target: Dual specificity tyrosine-phosphorylation-regulated kinase 1A (Homo sapiens) (UniProt Q13627)
[12] = molecular target: Dual specificity tyrosine-phosphorylation-regulated kinase 2 (Homo sapiens) (UniProt Q92630)
[13] = molecular target: Epidermal growth factor receptor (Homo sapiens) (UniProt P00533)
[14] = test system: Epidermal growth factor receptor (Homo sapiens), P00533 [UNDEFINED MUTATION]
[15] = molecular target: Ephrin type-A receptor 2 (Homo sapiens) (UniProt P29317)
[16] = molecular target: Ephrin type-A receptor 7 (Homo sapiens) (UniProt Q15375)
[17] = molecular target: Ephrin type-B receptor 3 (Homo sapiens) (UniProt P54753)
[18] = molecular target: Ephrin type-B receptor 4 (Homo sapiens) (UniProt P54760)
[19] = molecular target: Ephrin type-B receptor 6 (Homo sapiens) (UniProt O15197)
[20] = molecular target: Mitogen-activated protein kinase 7 (Homo sapiens) (UniProt Q13164)
[21] = molecular target: Tyrosine-protein kinase FRK (Homo sapiens) (UniProt P42685)
[22] = test system: eIF-2-alpha kinase GCN2 (Homo sapiens), Q9P2K8 [S808G]
[23] = molecular target: Insulin-like growth factor 1 receptor (Homo sapiens) (UniProt P08069)
[24] = molecular target: Insulin receptor (Homo sapiens) (UniProt P06213)
[25] = molecular target: Tyrosine-protein kinase JAK2 (Homo sapiens) (UniProt O60674)
[26] = molecular target: Tyrosine-protein kinase JAK3 (Homo sapiens) (UniProt P52333)
[27] = molecular target: Mitogen-activated protein kinase kinase kinase 2 (Homo sapiens) (UniProt Q9Y2U5)
[28] = molecular target: Dual specificity mitogen-activated protein kinase kinase 2 (Homo sapiens) (UniProt P36507)
[29] = molecular target: Mitogen-activated protein kinase kinase kinase 9 (Homo sapiens) (UniProt P80192)
[30] = molecular target: Mitogen-activated protein kinase kinase kinase 10 (Homo sapiens) (UniProt Q02779)
[31] = molecular target: Serine/threonine-protein kinase PAK 4 (Homo sapiens) (UniProt O96013)
[32] = molecular target: Cyclin-dependent kinase 16 (Homo sapiens) (UniProt Q00536)
[33] = molecular target: Cyclin-dependent kinase 2 homolog (Plasmodium falciparum (isolate 3D7)) (UniProt P61075)
[34] = molecular target: Cyclin-dependent kinase 15 (Homo sapiens) (UniProt Q96Q40)
[35] = molecular target: Phosphorylase b kinase regulatory subunit alpha, liver isoform (Homo sapiens) (UniProt P46019)
[36] = test system: Phosphatidylinositol 4,5-bisphosphate 3-kinase catalytic subunit alpha isoform (Homo sapiens), P42336 [I800L]
[37] = molecular target: Phosphatidylinositol 4,5-bisphosphate 3-kinase catalytic subunit delta isoform (Homo sapiens) (UniProt O00329)
[38] = molecular target: Serine/threonine-protein kinase pim-2 (Homo sapiens) (UniProt Q9P1W9)
[39] = molecular target: Serine/threonine-protein kinase PRP4 homolog (Homo sapiens) (UniProt Q13523)
[40] = molecular target: Serine/threonine-protein kinase RIO2 (Homo sapiens) (UniProt Q9BVS4)
[41] = molecular target: Ribosomal protein S6 kinase alpha-2 (Homo sapiens) (UniProt Q15349)
[42] = molecular target: Serine/threonine-protein kinase Sgk2 (Homo sapiens) (UniProt Q9HBY8)
[43] = molecular target: Serine/threonine-protein kinase SIK2 (Homo sapiens) (UniProt Q9H0K1)
[44] = molecular target: SNF-related serine/threonine-protein kinase (Homo sapiens) (UniProt Q9NRH2)
[45] = molecular target: Serine/threonine-protein kinase WNK3 (Homo sapiens) (UniProt Q9BYP7)

Measured: residual activity

Sequence of Serine/threonine-protein kinase RIO2 (Homo sapiens) (Q9BVS4 whole entry, looked up): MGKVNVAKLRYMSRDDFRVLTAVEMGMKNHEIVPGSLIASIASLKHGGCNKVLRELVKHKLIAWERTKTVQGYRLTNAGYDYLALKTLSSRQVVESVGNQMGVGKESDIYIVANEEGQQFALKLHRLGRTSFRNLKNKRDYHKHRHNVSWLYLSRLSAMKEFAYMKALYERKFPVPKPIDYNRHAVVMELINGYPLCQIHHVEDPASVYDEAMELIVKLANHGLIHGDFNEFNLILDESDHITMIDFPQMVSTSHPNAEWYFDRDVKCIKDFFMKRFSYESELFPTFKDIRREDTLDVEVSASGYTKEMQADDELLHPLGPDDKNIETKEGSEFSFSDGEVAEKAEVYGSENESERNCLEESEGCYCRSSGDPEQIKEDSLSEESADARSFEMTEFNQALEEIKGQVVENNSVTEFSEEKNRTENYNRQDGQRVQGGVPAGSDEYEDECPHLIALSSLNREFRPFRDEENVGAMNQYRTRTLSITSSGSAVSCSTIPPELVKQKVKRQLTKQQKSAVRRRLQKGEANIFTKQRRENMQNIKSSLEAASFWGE
Sequence of Macrophage colony-stimulating factor 1 receptor (Homo sapiens) (P07333 whole entry, canonical isoform): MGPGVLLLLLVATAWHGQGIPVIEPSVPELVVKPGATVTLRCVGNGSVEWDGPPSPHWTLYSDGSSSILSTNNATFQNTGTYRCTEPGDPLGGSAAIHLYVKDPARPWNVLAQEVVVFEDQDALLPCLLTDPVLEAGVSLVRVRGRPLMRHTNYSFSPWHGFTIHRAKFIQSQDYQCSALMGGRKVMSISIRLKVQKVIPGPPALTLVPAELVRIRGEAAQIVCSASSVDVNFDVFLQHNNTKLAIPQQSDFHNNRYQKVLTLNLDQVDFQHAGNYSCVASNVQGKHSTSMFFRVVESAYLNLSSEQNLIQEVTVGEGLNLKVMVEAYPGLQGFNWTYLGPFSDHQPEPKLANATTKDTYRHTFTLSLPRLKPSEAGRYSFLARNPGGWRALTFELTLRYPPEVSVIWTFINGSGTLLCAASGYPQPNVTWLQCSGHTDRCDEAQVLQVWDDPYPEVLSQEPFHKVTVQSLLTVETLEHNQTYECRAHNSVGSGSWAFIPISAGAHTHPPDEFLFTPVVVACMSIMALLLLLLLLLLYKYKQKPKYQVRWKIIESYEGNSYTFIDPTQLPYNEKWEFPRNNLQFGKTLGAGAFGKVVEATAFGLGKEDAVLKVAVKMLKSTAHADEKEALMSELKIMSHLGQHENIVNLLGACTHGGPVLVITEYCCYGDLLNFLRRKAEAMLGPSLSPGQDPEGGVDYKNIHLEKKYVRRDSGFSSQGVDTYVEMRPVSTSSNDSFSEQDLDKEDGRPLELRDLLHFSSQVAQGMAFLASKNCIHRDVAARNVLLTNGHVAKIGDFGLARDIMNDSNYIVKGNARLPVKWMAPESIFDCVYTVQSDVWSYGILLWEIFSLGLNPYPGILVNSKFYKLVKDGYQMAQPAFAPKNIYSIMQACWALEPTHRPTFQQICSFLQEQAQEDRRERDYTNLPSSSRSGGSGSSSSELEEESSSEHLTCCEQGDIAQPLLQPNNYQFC
Sequence of Serine/threonine-protein kinase PRP4 homolog (Homo sapiens) (Q13523 whole entry): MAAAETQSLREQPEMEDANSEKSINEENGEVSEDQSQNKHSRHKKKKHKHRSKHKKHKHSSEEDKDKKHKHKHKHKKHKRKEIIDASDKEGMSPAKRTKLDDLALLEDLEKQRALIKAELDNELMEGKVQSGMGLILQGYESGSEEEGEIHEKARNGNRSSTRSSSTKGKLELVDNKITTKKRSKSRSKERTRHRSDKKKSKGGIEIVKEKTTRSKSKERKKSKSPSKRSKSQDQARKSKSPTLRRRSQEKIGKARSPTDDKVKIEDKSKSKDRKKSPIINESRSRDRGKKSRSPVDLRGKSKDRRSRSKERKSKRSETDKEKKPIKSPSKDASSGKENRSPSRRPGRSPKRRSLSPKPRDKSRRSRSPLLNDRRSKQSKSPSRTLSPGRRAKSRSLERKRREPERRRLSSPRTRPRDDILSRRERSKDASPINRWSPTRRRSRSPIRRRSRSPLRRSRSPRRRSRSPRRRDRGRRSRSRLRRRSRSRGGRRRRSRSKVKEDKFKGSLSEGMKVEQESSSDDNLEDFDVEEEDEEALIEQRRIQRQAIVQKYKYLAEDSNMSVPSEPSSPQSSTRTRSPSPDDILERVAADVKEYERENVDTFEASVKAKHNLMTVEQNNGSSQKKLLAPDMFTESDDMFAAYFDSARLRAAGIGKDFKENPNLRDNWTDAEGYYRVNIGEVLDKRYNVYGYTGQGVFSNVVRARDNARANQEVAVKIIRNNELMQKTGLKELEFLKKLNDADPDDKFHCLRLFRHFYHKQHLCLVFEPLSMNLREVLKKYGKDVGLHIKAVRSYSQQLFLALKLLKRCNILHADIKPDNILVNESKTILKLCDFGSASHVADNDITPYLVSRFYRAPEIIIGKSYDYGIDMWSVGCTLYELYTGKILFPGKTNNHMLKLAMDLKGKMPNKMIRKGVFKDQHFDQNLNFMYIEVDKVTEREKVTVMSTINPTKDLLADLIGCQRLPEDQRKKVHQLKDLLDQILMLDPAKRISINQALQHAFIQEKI
Sequence of Mitogen-activated protein kinase kinase kinase 2 (Homo sapiens) (Q9Y2U5 whole entry): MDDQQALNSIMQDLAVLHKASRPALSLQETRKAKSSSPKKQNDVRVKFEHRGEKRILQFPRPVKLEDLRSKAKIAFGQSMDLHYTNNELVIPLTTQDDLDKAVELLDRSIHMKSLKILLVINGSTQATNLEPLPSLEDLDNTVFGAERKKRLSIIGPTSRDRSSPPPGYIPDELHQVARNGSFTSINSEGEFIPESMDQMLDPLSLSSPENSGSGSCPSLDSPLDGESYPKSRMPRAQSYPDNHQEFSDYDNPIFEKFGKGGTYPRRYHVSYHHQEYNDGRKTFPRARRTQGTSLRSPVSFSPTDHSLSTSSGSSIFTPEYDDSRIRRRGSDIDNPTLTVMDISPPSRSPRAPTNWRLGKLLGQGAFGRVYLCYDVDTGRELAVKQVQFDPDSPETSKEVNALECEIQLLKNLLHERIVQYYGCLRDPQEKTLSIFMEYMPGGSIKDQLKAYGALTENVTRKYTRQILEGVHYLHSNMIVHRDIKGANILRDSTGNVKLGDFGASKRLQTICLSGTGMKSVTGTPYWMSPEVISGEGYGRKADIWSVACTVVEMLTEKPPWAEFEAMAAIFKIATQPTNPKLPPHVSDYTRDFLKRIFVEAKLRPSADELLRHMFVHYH
Sequence of eIF-2-alpha kinase GCN2 (Homo sapiens), Q9P2K8 [S808G] (Q9P2K8 whole entry S808G): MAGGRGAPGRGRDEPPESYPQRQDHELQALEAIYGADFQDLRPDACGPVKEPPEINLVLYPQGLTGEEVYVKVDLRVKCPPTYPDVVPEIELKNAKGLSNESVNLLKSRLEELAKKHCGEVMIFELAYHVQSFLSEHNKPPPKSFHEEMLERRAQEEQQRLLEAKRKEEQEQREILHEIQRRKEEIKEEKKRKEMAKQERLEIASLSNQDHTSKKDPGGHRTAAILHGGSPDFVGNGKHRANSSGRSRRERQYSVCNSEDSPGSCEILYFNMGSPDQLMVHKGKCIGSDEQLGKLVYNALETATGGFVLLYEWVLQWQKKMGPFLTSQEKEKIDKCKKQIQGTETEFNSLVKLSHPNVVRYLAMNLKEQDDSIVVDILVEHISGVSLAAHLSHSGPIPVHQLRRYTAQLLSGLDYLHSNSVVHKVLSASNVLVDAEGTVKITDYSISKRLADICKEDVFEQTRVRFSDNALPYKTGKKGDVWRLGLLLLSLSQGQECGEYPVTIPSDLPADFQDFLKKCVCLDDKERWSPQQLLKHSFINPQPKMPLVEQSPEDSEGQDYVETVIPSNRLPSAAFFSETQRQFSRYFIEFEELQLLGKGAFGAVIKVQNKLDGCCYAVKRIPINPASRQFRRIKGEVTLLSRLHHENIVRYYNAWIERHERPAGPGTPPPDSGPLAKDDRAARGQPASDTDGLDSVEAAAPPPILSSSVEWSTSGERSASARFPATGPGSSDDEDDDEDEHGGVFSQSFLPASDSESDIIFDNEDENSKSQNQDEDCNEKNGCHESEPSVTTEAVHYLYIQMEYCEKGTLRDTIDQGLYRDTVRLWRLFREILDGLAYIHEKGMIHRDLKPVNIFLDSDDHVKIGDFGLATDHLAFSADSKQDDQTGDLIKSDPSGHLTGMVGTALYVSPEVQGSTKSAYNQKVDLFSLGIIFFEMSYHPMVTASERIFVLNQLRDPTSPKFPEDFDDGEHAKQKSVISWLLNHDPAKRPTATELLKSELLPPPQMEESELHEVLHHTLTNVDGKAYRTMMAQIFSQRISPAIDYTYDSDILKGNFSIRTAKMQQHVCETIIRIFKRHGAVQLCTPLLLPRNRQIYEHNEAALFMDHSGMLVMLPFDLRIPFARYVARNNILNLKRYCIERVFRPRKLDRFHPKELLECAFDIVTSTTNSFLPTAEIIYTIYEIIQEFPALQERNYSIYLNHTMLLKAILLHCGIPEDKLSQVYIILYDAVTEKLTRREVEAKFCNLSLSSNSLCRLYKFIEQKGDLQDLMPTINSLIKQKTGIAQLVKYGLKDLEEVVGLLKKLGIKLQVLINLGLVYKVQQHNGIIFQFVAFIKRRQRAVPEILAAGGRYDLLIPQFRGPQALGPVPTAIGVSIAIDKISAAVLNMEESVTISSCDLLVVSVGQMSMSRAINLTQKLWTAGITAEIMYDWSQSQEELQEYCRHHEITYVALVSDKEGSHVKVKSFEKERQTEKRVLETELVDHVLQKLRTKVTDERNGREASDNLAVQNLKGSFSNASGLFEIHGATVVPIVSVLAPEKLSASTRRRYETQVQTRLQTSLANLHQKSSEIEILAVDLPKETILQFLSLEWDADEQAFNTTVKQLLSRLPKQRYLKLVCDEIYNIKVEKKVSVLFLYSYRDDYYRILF
Sequence of Cyclin-dependent kinase 5 (Homo sapiens) (Q00535 whole entry, looked up): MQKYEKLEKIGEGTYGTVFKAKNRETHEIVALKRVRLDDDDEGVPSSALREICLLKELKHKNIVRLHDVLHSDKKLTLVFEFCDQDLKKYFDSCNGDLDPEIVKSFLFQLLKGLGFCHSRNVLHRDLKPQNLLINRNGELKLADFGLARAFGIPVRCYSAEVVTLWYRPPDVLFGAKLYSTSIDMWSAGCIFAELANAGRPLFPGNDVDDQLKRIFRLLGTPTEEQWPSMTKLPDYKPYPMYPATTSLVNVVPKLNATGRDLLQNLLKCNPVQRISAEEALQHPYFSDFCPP

CN([C@@H]1CCc2c(CC(=O)O)c3ccccc3n2C1)S(=O)(=O)c1ccc(F)cc1 [MK-7246]
inactive: [1] 88% | [2] 100% | [3] 100% | [4] 100% | [5] 100% | [6] 100% | [7] 100% | [8] 100% | [9] 82% | [10] 98% | [11] 69% | [12] 95% | [13] 95% | [14] 95% | [15] 100% | [16] 100% | [17] 88% | [18] 95% | [19] 83% | [20] 100% | [21] 100% | [22] 78% | [23] 100% | [24] 100% | [25] 100% | [26] 98% | [27] 100% | [28] 76% | [29] 100% | [30] 100% | [31] 100% | [32] 98% | [33] 94% | [34] 100% | [35] 100% | [36] 79% | [37] 95% | [38] 100% | [39] 99% | [40] 90% | [41] 100% | [42] 100% | [43] 99% | [44] 100% | [45] 86%

CN([C@@H]1CCc2c(CC(=O)O)c3cc(S(C)(=O)=O)ccc3n2C1)S(=O)(=O)c1ccc(F)cc1
inactive: [1] 100% | [2] 87% | [3] 100% | [4] 100% | [5] 100% | [6] 86% | [7] 93% | [8] 100% | [9] 79% | [10] 88% | [11] 81% | [12] 94% | [13] 100% | [14] 80% | [15] 100% | [16] 100% | [17] 90% | [18] 95% | [19] 82% | [20] 96% | [21] 100% | [22] 71% | [23] 98% | [24] 100% | [25] 100% | [26] 100% | [27] 89% | [28] 95% | [29] 91% | [30] 100% | [31] 100% | [32] 84% | [33] 100% | [34] 84% | [35] 100% | [36] 72% | [37] 100% | [38] 100% | [39] 100% | [40] 96% | [41] 100% | [42] 100% | [43] 93% | [44] 100% | [45] 83%

Reference: ChEMBL document CHEMBL4507290 (2021)
